# Results published in patent US9872883B2, “Methods of producing anamorelin hydrochloride having controlled chloride content” (HELSINN HEALTHCARE SA, priority 2012, dated 2018).
# Counter-ions that a name gives are not always drawn.
# Assays:
# Assay type in all cases: physicochemical
# [1] = Stability testing for anamorelin dihydrochloride relative to the monohydrochloride and free base at 40° C./75% relative humidity
# Protocol: Stability testing for anamorelin dihydrochloride relative to the monohydrochloride and anamorelin free base at 40° C./75% relative humidity is reported below in Table 3D. For the anamorelin dihydrochloride preparation, anamorelin free base was dissolved in ethyl acetate and a molar excess of hydrochloric acid in ethyl acetate was added into the mixture to precipitate anamorelin dihydrochloride. The resulting anamorelin dihydrochloride was filtered and dried (chloride content approximately 12.2%). HPLC Area % in Table 3D refers to the amount of converted value of anamorelin free base in samples.
# [2] = Solubility test in distilled water (HPLC); details: distilled water (initial pH 7)
# Protocol: A solution of standard curve was prepared to 356 μmol/L by diluting standard substance (anamorelin free base (quantitative value: 93.90%), 86.6 mmol/L, isopropyl acetate solution) with acetonitrile. In addition, a sample solution was prepared according to the process that test compound (about 100 mg) added into distilled water (10.00 g), the solution was mixed for 10 minutes at 50° C. and then was placed overnight, obtained suspension was filtered by syringe with filter (0.2 μm) and the filtrate (48.93 mg) was diluted with acetonitrile (10 mL). A solution of standard curve and a sample solution (each 5 μL) were determined by injecting into HPLC (GULLIVER1500 HPLC system, JASCO Corporation).
# [3] = Stability testing of spray dried amorphous anamorelin monohydrochloride (Batch A), purity and impurities by HPLC; design: Impurity 1 / Impurity 2 / Impurity 3 / Impurity 4 / Impurity 5 / Impurity 6 / Impurity 7: unit not given here
# Protocol: The purity of the anamorelin monohydrochloride (or composition comprising anamorelin monohydrochloride) was measured using high performance liquid chromatograph (HPLC) (Hewlett-Packard HP 1100 HPLC System, Agilent Technologies Inc.). The concentrated aqueous solution of anamorelin monohydrochloride A of example 1 was concentrated by spray drying using Niro QSD-3.6 (trade mark, GEA process engineering Inc.) to afford anamorelin monohydrochloride referred to as Batch A in Tables 2A and 2B) in an amorphous state. RRT refers to the relative retention time of the impurity versus anamorelin. In addition, the purity was converted into the amount of anamorelin free base within a sample without any other organic solvent since anamorelin monohydrochloride (or composition comprising anamorelin monohydrochloride) was dissolved in the solvent to be measured by HPLC condition.
# [4] = Long-term stability of batches having differing chloride contents, % increase in total impurities
# Protocol: The long-term stability of three separate batches of anamorelin monohydrochloride (or composition comprising anamorelin monohydrochloride) having differing chloride contents were evaluated for stability at 25° C./60% relative humidity for one, two and three years, and 40° C./75% relative humidity for one, three and six months. The results are presented below in Table 3C. % Increase in Table 3C was calculated by the following formula. % Increase=(M−I)/I×100
# I: initial total impurity (%)
# M: measured total impurity (%) at specific time (e.g., 3 months, 6 month and so forth)
smiles,measurement,setting,value
"CN(C)N(C)C(=O)[C@@]1(Cc2ccccc2)CCCN(C(=O)[C@@H](Cc2c[nH]c3ccccc23)NC(=O)C(C)(C)N)C1 [Anamorelin Free Base, (3R)1-(2-methylalanyl-D-tryptophyl)-3-(phenylmethyl)-3-piperidinecarboxylic acid 1,2,2trimethylhydrazide]",HPLC Area %,[1]; 1M,99.9%
same,HPLC Area %,[1]; 3M,99.7%
same,HPLC Area %,[1]; I.T.,99.7%
same,solubility,[2],0.04 mg/mL
CN(C)N(C)C(=O)[C@@]1(Cc2ccccc2)CCCN(C(=O)[C@@H](Cc2c[nH]c3ccccc23)NC(=O)C(C)(C)N)C1 [anamorelin],Impurity 1,"[3]; 25° C./60% RH, 1 month",<0.05
same,Impurity 2,"[3]; 25° C./60% RH, 1 month",<0.05
same,Impurity 3,"[3]; 25° C./60% RH, 1 month",<0.05
same,Impurity 4,"[3]; 25° C./60% RH, 1 month",<0.05
same,Impurity 5,"[3]; 25° C./60% RH, 1 month",<0.05
same,Impurity 6,"[3]; 25° C./60% RH, 1 month",<0.05
same,Impurity 7,"[3]; 25° C./60% RH, 1 month",<0.05
same,anamorelin (HPLC purity),"[3]; 25° C./60% RH, 1 month",100.0%
same,Impurity 1,"[3]; 25° C./60% RH, 3 months",<0.05
same,Impurity 2,"[3]; 25° C./60% RH, 3 months",<0.05
same,Impurity 3,"[3]; 25° C./60% RH, 3 months",<0.05
same,Impurity 4,"[3]; 25° C./60% RH, 3 months",<0.05
same,Impurity 5,"[3]; 25° C./60% RH, 3 months",<0.05
same,Impurity 6,"[3]; 25° C./60% RH, 3 months",<0.05
same,Impurity 7,"[3]; 25° C./60% RH, 3 months",<0.05
same,anamorelin (HPLC purity),"[3]; 25° C./60% RH, 3 months",100.0%
same,Impurity 1,"[3]; 25° C./60% RH, 6 months",<0.05
same,Impurity 2,"[3]; 25° C./60% RH, 6 months",<0.05
same,Impurity 3,"[3]; 25° C./60% RH, 6 months",<0.05
same,Impurity 4,"[3]; 25° C./60% RH, 6 months",<0.05
same,Impurity 5,"[3]; 25° C./60% RH, 6 months",<0.05
same,Impurity 6,"[3]; 25° C./60% RH, 6 months",<0.05
same,Impurity 7,"[3]; 25° C./60% RH, 6 months",<0.05
same,anamorelin (HPLC purity),"[3]; 25° C./60% RH, 6 months",100.0%
same,Impurity 1,"[3]; 40° C./75% RH, 1 month",<0.05
same,Impurity 2,"[3]; 40° C./75% RH, 1 month",<0.05
same,Impurity 3,"[3]; 40° C./75% RH, 1 month",<0.05
same,Impurity 4,"[3]; 40° C./75% RH, 1 month",<0.05
same,Impurity 5,"[3]; 40° C./75% RH, 1 month",<0.05
same,Impurity 6,"[3]; 40° C./75% RH, 1 month",<0.05
same,Impurity 7,"[3]; 40° C./75% RH, 1 month",<0.05
same,anamorelin (HPLC purity),"[3]; 40° C./75% RH, 1 month",100.0%
same,Impurity 1,"[3]; 40° C./75% RH, 3 months",<0.05
same,Impurity 2,"[3]; 40° C./75% RH, 3 months",<0.05
same,Impurity 3,"[3]; 40° C./75% RH, 3 months",<0.05
same,Impurity 4,"[3]; 40° C./75% RH, 3 months",<0.05
same,Impurity 5,"[3]; 40° C./75% RH, 3 months",<0.05
same,Impurity 6,"[3]; 40° C./75% RH, 3 months",<0.05
same,Impurity 7,"[3]; 40° C./75% RH, 3 months",<0.05
same,anamorelin (HPLC purity),"[3]; 40° C./75% RH, 3 months",100.0%
same,Impurity 1,"[3]; 40° C./75% RH, 6 months",<0.05
same,Impurity 2,"[3]; 40° C./75% RH, 6 months",<0.05
same,Impurity 3,"[3]; 40° C./75% RH, 6 months",<0.05
same,Impurity 4,"[3]; 40° C./75% RH, 6 months",<0.05
same,Impurity 5,"[3]; 40° C./75% RH, 6 months",<0.05
same,Impurity 6,"[3]; 40° C./75% RH, 6 months",<0.05
same,Impurity 7,"[3]; 40° C./75% RH, 6 months",<0.05
same,anamorelin (HPLC purity),"[3]; 40° C./75% RH, 6 months",100.0%
same,Impurity 1,[3]; Initial,<0.05
same,Impurity 2,[3]; Initial,<0.05
same,Impurity 3,[3]; Initial,<0.05
same,Impurity 4,[3]; Initial,<0.05
same,Impurity 5,[3]; Initial,<0.05
same,Impurity 6,[3]; Initial,<0.05
same,Impurity 7,[3]; Initial,<0.05
same,anamorelin (HPLC purity),[3]; Initial,100.0%
CN(C)N(C)C(=O)[C@@]1(Cc2ccccc2)CCCN(C(=O)[C@@H](Cc2c[nH]c3ccccc23)NC(=O)C(C)(C)N)C1 [6.3%],% Increase in Total Impurities From T0,"[4]; 25° C./60% RH, 1 Y",200%
same,% Increase in Total Impurities From T0,"[4]; 25° C./60% RH, 2 Y",340%
same,% Increase in Total Impurities From T0,"[4]; 25° C./60% RH, 3 Y",360%
same,% Increase in Total Impurities From T0,"[4]; 40° C./75% RH, 1 M",140%
same,% Increase in Total Impurities From T0,"[4]; 40° C./75% RH, 3 M",400%
same,% Increase in Total Impurities From T0,"[4]; 40° C./75% RH, 6 M",500%
CN(C)N(C)C(=O)[C@@]1(Cc2ccccc2)CCCN(C(=O)[C@@H](Cc2c[nH]c3ccccc23)NC(=O)C(C)(C)N)C1 [5.9%],% Increase in Total Impurities From T0,"[4]; 25° C./60% RH, 1 Y",0%
same,% Increase in Total Impurities From T0,"[4]; 25° C./60% RH, 2 Y",20%
same,% Increase in Total Impurities From T0,"[4]; 25° C./60% RH, 3 Y",20%
same,% Increase in Total Impurities From T0,"[4]; 40° C./75% RH, 1 M",0%
same,% Increase in Total Impurities From T0,"[4]; 40° C./75% RH, 3 M",21%
same,% Increase in Total Impurities From T0,"[4]; 40° C./75% RH, 6 M",17%
CN(C)N(C)C(=O)[C@@]1(Cc2ccccc2)CCCN(C(=O)[C@@H](Cc2c[nH]c3ccccc23)NC(=O)C(C)(C)N)C1 [6.2%],% Increase in Total Impurities From T0,"[4]; 25° C./60% RH, 1 Y",85%
same,% Increase in Total Impurities From T0,"[4]; 25° C./60% RH, 2 Y",114%
same,% Increase in Total Impurities From T0,"[4]; 25° C./60% RH, 3 Y",100%
same,% Increase in Total Impurities From T0,"[4]; 40° C./75% RH, 1 M",107%
same,% Increase in Total Impurities From T0,"[4]; 40° C./75% RH, 3 M",100%
same,% Increase in Total Impurities From T0,"[4]; 40° C./75% RH, 6 M",171%
CN(C)N(C)C(=O)[C@@]1(Cc2ccccc2)CCCN(C(=O)[C@@H](Cc2c[nH]c3ccccc23)NC(=O)C(C)(C)N)C1 [5.6%],% Increase in Total Impurities From T0,"[4]; 25° C./60% RH, 1 Y",10%
same,% Increase in Total Impurities From T0,"[4]; 25° C./60% RH, 2 Y",48%
same,% Increase in Total Impurities From T0,"[4]; 25° C./60% RH, 3 Y",29%
"CN(C)N(C)C(=O)[C@@]1(Cc2ccccc2)CCCN(C(=O)[C@@H](Cc2c[nH]c3ccccc23)NC(=O)C(C)(C)N)C1 [Anamorelin Di-HCl, reference compound]",HPLC Area %,[1]; 1M,98.2%
same,HPLC Area %,[1]; 3M,97.1%
same,HPLC Area %,[1]; I.T.,98.9%
same,long-term stability (in words),[1]; relative to the monohydrochloride,easy to be changed
CN(C)N(C)C(=O)[C@@]1(Cc2ccccc2)CCCN(C(=O)[C@@H](Cc2c[nH]c3ccccc23)NC(=O)C(C)(C)N)C1 [anamorelin monohydrochloride],stability (in words),[3]; six months under each set of conditions,nearly unchanged
same,long-term stability (in words),"[4]; three years, 25° C./60% RH",nearly unchanged
same,HPLC Area %,"[1]; 1M, listed as Anamorelin Mono-HCl",99.3%
same,HPLC Area %,"[1]; 3M, listed as Anamorelin Mono-HCl",99.2%
same,HPLC Area %,"[1]; I.T., listed as Anamorelin Mono-HCl",99.9%
same,solubility,[2],>333 mg/mL
